Reference: patent US7262151B2, “Methods and compositions for production of lipo-chito oligosaccharides by rhizobacteria” (McGill University, priority 2001, dated 2007)
Like-named read-outs stand apart in the source and are kept apart here.

Experiments:
Type in all cases: cell-based
[1] = system: nod genes in Bradyrhizobium japonicum strain USDA121; assay: nod gene induction, β-galactosidase assay, strain USDA121 (GG3); conditions: control 476.8 ± 86.6
Protocol: (§1) Bacteria were grown in yeast extract mannitol (YEM) medium (mannitol 10.0 g, K2HPO4 0.5 g, MgSO4.7H2O 0.2 g, NaCl 0.1 g, and yeast extract 0.4 g dissolved in 1000 mL of dd H2O). In order to ensure the maintenance of the strains, tetracycline was added to the bacterial cultures at a concentration of 20 mg 1^−1. One hundred mL cultures of each strain, in 250 mL flasks, were shaken at 150 rev min^−1 at 30° C. for 3-5 days and then subcultured into 400 mL of fresh medium in 1000 mL flasks. The cultures were incubated until the OD620 reached 0.2-0.3. The cultures were then divided into 5 mL tubes (sterilized).
(§2) Stock solutions of various inducers: genistein, salicylic acid and acetylsalicylic acid made in methanol and linolenic, linoleic, and jasmonic acid and methyl jasmonate were made in ethanol, and an appropriate amount of these inducers was added into the tubes before addition of bacterial culture. In the tubes, the final concentration of all the inducers was maintained as 5, 10, 25, 50 and 100 μM. Tubes were collected after 18 h of incubation and stored at −20° C. until the β-galactosidase activity was measured. Genistein (4′,5,7, trihydroxyisoflavone, purity 98%,), linolenic acid (9,12,15-Octadecatrienoic acid, purity 99%), linoleic acid (cis-9, cis-12-Octadecadienoic acid, purity 99%), jasmonic acid (±Jasmonic acid, C12H18O3) and salicylic acid (2-hydroxybenzoic acid, purity 99.0%) were obtained from Sigma, while acetylsalicylic acid (C9H8O4, 99% purity) was obtained from Acros and methyl jasmonate (95% purity) was obtained from Aldrich Chemical Company, Inc.
(§3) β-galactosidase is an enzyme which hydrolyzes β-D-galactosides. The activity of this enzyme can easily be measured with colorless substrates, which upon hydrolysis produce colored products. O-nitrophenyl-β-galactoside (ONPG) is a colorless compound and is converted to galactose and O-nitrophenol in the presence of β-galactosidase. The O-nitrophenol is yellow and can be measured by its absorption at 420 nm. In the present study, nod gene expression was indirectly measured by β-galactosidase activity following the method of Miller (1972) as modified by Stachel et al, (1985). Briefly, 0.5 mL culture was mixed with 2×Z buffer (Na2HPO4.7H2O, 16.1 g, NaH2PO4.H2O, 5.5 g, KCl 0.75 g, MgSO4.7H2O 0.246 g, β-mercaptoethanol 2.7 g, pH 7.0 dissolved in 500 mL water) and 40 μL toluene and vortexed for 10 seconds. The culture was then incubated in a water bath at 37° C. for 30 minutes and then 0.2 mL of O-nitrophenyl β-D-galactopyranoside (ONPG) was added at a concentration of 4 mg mL^−1. The cultures were incubated again in the water bath until the color of the culture changed. The reaction time was recorded and the reaction was stopped with 1M Na2CO3. After centrifugation at 10,000 rpm for 4 minutes, spectrophotometric reading at OD420 and OD600 were taken and the β-galactosidase activity was measured (β-galactosidase activity=OD420*1000/OD600*T*V, where T is the reaction time and V is the volume of the bacterial culture used for enzyme assay).
(§4) The effect of 0-100 μM concentrations of each of acetylsalicylic acid, salicylic acid, jasmonic acid, methyl jasmonate, and genistein, on induction of nod gene expression in Bradyrhizobium japonicum strains USDA31, USDA76, USDA121, and USDA3, was evaluated in accordance with the β-galactosidase assay of Experiment 1 in Example 1 above.

[2] = system: nod genes in Bradyrhizobium japonicum strain USDA3; conditions: for nod gene induction (β-galactosidase activity): USDA3 (GG4), control 362 ± 25; for expression of nod genes (β-galactosidase assay), in words: FIG. 1; for synergistic effect on β-galactosidase activity: simultaneous addition with genistein (5 μM), FIG. 2
Protocol: Bradyrhizobium japonicum strain USDA3, harboring plasmid GG4, was used in the experiment. Plasmid GG4 contains a translational fusion between B. japonicum nod Y open-reading frame and lac Z of Escherichia coli.
as §1, §2, §3
The experiment was designed in a randomized complete block design (RCBD) with three replicates. […] Data are shown from the second experiment. Statistical analysis of the data was done with analysis of variance using the Statistical Analysis System computer package (SAS Institute, 1988). Comparisons among treatment means were made with an ANOVA protected LSD at the 0.05 level of statistical significance.

[3] = system: nod genes in Bradyrhizobium japonicum strain USDA31; assay: nod gene induction, β-galactosidase assay, strain USDA31 (GG1)
Protocol: as §1, §2, §3, §4

[4] = system: nod genes in Bradyrhizobium japonicum strain USDA76; assay: nod gene induction, β-galactosidase assay, strain USDA 76 (GG2); conditions: control 411.8 ± 26.8
Protocol: as §1, §2, §3, §4

[5] = 5 μM, control without inducer 522.6 ± 15.9
[6] = concentrations from 25 to 100 μM

Compound | nod gene induction (β-galactosidase activity) ([1]; 5 μM) | nod gene induction (β-galactosidase activity) ([1]; 10 μM) | nod gene induction (β-galactosidase activity) ([1]; 25 μM) | nod gene induction (β-galactosidase activity) ([1]; 50 μM) | nod gene induction (β-galactosidase activity) ([1]; 100 μM) | nod gene induction (β-galactosidase activity) ([2]; 5 μM) | nod gene induction (β-galactosidase activity) ([2]; 10 μM) | nod gene induction (β-galactosidase activity) ([2]; 25 μM) | nod gene induction (β-galactosidase activity) ([2]; 50 μM) | nod gene induction (β-galactosidase activity) ([2]; 100 μM) | nod gene induction (β-galactosidase activity) [3, 5] | nod gene induction (β-galactosidase activity) ([3]; 10 μM, control 522.6 ± 15.9) | nod gene induction (β-galactosidase activity) ([3]; 25 μM, control 522.6 ± 15.9) | nod gene induction (β-galactosidase activity) ([3]; 50 μM, control 522.6 ± 15.9) | nod gene induction (β-galactosidase activity) ([3]; 100 μM, control 522.6 ± 15.9) | nod gene induction (β-galactosidase activity) ([4]; 5 μM) | nod gene induction (β-galactosidase activity) ([4]; 10 μM) | nod gene induction (β-galactosidase activity) ([4]; 25 μM) | nod gene induction (β-galactosidase activity) ([4]; 50 μM) | nod gene induction (β-galactosidase activity) ([4]; 100 μM) | further results
O=c1c(-c2ccc(O)cc2)coc2cc(O)cc(O)c12 [GEN, 5,7,4′-trihydroxyisoflavone] | 2081.7 ± 148.5 | 1685.1 ± 53.3 | 1286.8 ± 145.5 | 1154.5 ± 121.1 | 430.9 ± 80.6 | 3304 ± 333 | 2500 ± 94 | 2300 ± 219 | 1930 ± 74 | 406 ± 15 | 2283.8 ± 57.7 | 2007.6 ± 36.7 | 1821 ± 89.2 | 1121.1 ± 156.9 | 491.9 ± 31.6 | 1421.7 ± 93.4 | 1320.8 ± 75.99 | 1383.8 ± 98.22 | 1160.7 ± 89.7 | 413.7 ± 7.4 | optimum concentration for nod gene induction ([2]; USDA3, β-galactosidase assay): 5 µM
CC/C=C\CC1C(=O)CCC1CC(=O)OC (stereo not shown) [MeJA, methyl jasmonate] | 518 ± 42.6 | 487.1 ± 33 | 427 ± 29.4 | 549.2 ± 81.6 | 487.9 ± 89.3 | 448 ± 30 | 500 ± 61 | 3000 ± 350 | 4700 ± 450 | 4500 ± 400 | 472.2 ± 14.8 | 485.3 ± 42.5 | 403.3 ± 5.6 | 500.1 ± 32 | 392.9 ± 22.7 | 435.4 ± 39 | 418.4 ± 53.1 | 392.7 ± 2.1 | 410.4 ± 24.5 | 386.4 ± 37.3 | expression of nod genes (β-galactosidase assay), in words ([2]; concentrations 10 μM or less): showed no activity; expression of nod genes (β-galactosidase assay), in words [2, 6]: strongly induced the expression of nod genes; synergistic effect on β-galactosidase activity [2]: did not result in any synergistic effect
CC/C=C\C[C@H]1C(=O)CC[C@@H]1CC(=O)O [JA, [1R-[1α,2β(Z)]]-3-oxo-2-(pentenyl)cyclopentaneacetic acid] | 540.3 ± 79.3 | 473.7 ± 58.3 | 496 ± 49.2 | 412.7 ± 22.9 | 329.5 ± 19.3 | 368 ± 23 | 362 ± 9 | 3200 ± 230 | 3900 ± 150 | 550 ± 210 | 1653.3 ± 105.2 | 2079 ± 254.9 | 1853.3 ± 314.5 | 1884.3 ± 289.3 | 796 ± 67.3 | 393.5 ± 30.5 | 447.9 ± 21 | 420.1 ± 4.6 | 375.1 ± 35.3 | 357.7 ± 9.7 | expression of nod genes (β-galactosidase assay), in words ([2]; concentrations 10 μM or less): showed no activity; expression of nod genes (β-galactosidase assay), in words [2, 6]: strongly induced the expression of nod genes; synergistic effect on β-galactosidase activity [2]: did not result in any synergistic effect
